In ChEMBL document CHEMBL4616598 (Bioorg Med Chem, 2020):

Tests used:
[1] = species on record: Homo sapiens; assay: Selectivity ratio of Ki for displacement of [3H]-5-carboxamidotryptamine from human 5-HT1A receptor expressed in HEK293T cell membranes to Ki for displacement of [3H]-5-carboxamidotryptamine from human 5-HT7 receptor expressed in HEK293 cell membranes
[2] = target: 5-hydroxytryptamine receptor 7 (Homo sapiens, UniProt P34969); assay: Displacement of [3H]-5-carboxamidotryptamine from human 5-HT7A receptor expressed in HEK293 cell membranes incubated for 90 mins by scintillation counting method
5-hydroxytryptamine receptor 7, sequence (P34969 whole entry): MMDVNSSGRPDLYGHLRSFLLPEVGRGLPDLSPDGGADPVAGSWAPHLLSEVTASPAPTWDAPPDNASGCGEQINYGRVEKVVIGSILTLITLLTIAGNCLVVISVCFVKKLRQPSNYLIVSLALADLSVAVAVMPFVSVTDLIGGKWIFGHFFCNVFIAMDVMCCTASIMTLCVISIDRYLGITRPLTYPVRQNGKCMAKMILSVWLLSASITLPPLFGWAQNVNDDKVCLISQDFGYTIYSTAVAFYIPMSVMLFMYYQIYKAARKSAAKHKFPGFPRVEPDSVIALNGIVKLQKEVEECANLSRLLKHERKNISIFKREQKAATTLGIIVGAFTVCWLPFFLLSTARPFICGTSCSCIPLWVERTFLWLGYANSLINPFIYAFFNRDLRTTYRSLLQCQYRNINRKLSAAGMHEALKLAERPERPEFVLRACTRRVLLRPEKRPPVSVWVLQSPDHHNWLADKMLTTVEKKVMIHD

[3] = target: T1, 5-hydroxytryptamine receptor 1A (Homo sapiens, UniProt P08908); assay: Displacement of [3H]-5-carboxamidotryptamine from human 5-HT1A receptor expressed in HEK293T cell membranes incubated for 90 mins by scintillation counting method; design: species or system HEK-293T
T1 sequence (P08908 whole entry): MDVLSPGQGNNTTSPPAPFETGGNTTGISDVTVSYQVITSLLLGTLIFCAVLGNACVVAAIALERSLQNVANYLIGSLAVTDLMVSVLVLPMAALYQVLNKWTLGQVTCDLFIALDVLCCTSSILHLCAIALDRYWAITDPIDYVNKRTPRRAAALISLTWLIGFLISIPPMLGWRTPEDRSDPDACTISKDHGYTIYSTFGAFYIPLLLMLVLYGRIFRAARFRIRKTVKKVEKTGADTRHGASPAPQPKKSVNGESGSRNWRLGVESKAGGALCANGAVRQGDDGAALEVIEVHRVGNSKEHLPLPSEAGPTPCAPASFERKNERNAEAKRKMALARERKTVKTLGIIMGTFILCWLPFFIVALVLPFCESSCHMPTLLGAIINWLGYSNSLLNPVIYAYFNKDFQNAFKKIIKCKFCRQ

SMILES	Ratio Ki [1]	Ki [2]	Ki [3]
CN(C)[C@H]1CCc2c(cccc2-c2ccccc2)C1	0.66	9.5 nM	
CN(C)[C@H]1CCc2c(cccc2-c2cccs2)C1	0.26	17 nM	4.5 nM
CN(C)[C@@H]1CCc2c(cccc2-c2ccc(Cl)cc2)C1	0.23	84 nM	19 nM
CCCN(CCC)[C@H]1CCc2c(cccc2-c2ccccc2Cl)C1	0.11		0.64 nM
CN(C)C1CCc2c(cccc2-c2ccccc2Cl)C1 (racemic)	3.3	4.2 nM	14 nM
CN(C)C1CCc2c(cccc2-c2cccc3ccccc23)C1 (racemic)	5.9	22 nM	130 nM
CN(C)[C@@H]1CCc2c(cccc2-c2ccccc2F)C1		740 nM	
CN(C)C1CCc2c(cccc2-c2cccc(Cl)c2)C1 (racemic)	3.2	26 nM	82 nM
CN(C)[C@H]1CCc2c(cccc2-c2cc(C(F)(F)F)cc(C(F)(F)F)c2)C1	2.5		2230 nM
CN(C)C1CCc2c(cccc2-c2cccc(C(F)(F)F)c2)C1 (racemic)	2.9		180 nM
CN(C)C1CCc2c(cccc2-c2ccc(F)cc2)C1 (racemic)	0.26	117 nM	30 nM
Cc1nn(C)c(C)c1-c1cccc2c1CC[C@H](N(C)C)C2	20		
CN(C)[C@@H]1CCc2c(cccc2-c2cccs2)C1	0.83	180 nM	150 nM
CN(C)[C@@H]1CCc2c(cccc2-c2cccn2C)C1	0.92	600 nM	
CN(C)C1CCc2c(cccc2-c2c3ccccc3cc3ccccc23)C1 (racemic)	3.1	450 nM	1400 nM
CN(C)C1CCc2c(cccc2-c2ccc(F)cc2Cl)C1 (racemic)	2.1	16 nM	33 nM
CN(C)[C@H]1CCc2c(cccc2-c2ccc(Cl)cc2)C1	1.2	160 nM	190 nM
Fc1ccccc1-c1cccc2c1CCC(N1CCCC1)C2 (racemic)	0.025		

SMILES	Ratio Ki [1]	Ki [2]	Ki [3]
CN(C)C1CCc2c(cccc2-c2cncc3ccccc23)C1 (racemic)	6.7	97 nM	650 nM
CN(C)[C@H]1CCc2c(cccc2-c2cccc3ccccc23)C1	12		
CCCN(CCC)[C@@H]1CCc2c(cccc2-c2ccccc2)C1	1.1	190 nM	210 nM
CN(C)[C@H]1CCc2c(cccc2-c2ccccc2Cl)C1	7.6		
CN(C)C1CCc2c(cccc2-c2cc(Cl)cc(Cl)c2)C1 (racemic)	5.5	400 nM	2200 nM
CN(C)C1CCc2c(cccc2-c2cc(F)cc(F)c2)C1 (racemic)	1.3		230 nM
CCCN(CCC)[C@H]1CCc2c(cccc2-c2ccccc2)C1	0.17		
CN(C)[C@H]1CCc2c(cccc2-c2ccco2)C1	0.46	71 nM	
CN(C)[C@@H]1CCc2c(cccc2-c2cc(C(F)(F)F)cc(C(F)(F)F)c2)C1		> 10000 nM	> 10000 nM
CN(C)[C@H]1CCc2c(cccc2-c2cccn2C)C1	0.72	33 nM	24 nM
CN(C)C1CCc2c(cccc2C2CCCC2)C1 (racemic)	0.41		98 nM
CN(C)C1CCc2c(cccc2-c2cccc(F)c2)C1 (racemic)	1.3	18 nM	23 nM
CCCN(CCC)[C@H]1CCc2c(cccc2-c2ccccc2F)C1	0.34	5.3 nM	1.8 nM
CCCN(CCC)[C@@H]1CCc2c(cccc2-c2ccccc2Cl)C1	0.33	390 nM	130 nM
CCCN(CCC)[C@@H]1CCc2c(cccc2-c2ccccc2F)C1	0.12	740 nM	92 nM
CN(C)[C@@H]1CCc2c(cccc2-c2ccco2)C1	2.2	2600 nM	5600 nM
COc1cccc(-c2cccc3c2CCC(N(C)C)C3)c1 (racemic)	2.6	28 nM	73 nM
CN(C)[C@@H]1CCc2c(cccc2-c2ccccc2)C1	0.21	5200 nM	1100 nM
